Measured values reported in PubChem BioAssay (NCI).
Values joined by “and” are separate entries in the source; they are usually repeats but may differ in a detail not shown here. Equal entries are not always repeated.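 Where inhibition never reached the appropriate level, the endpoint shown equals the highest concentration tested. Otherwise, values were interpolated linearly from a five-concentration, 48-hour dose response in 96-well plates. GI50 is the concentration that inhibits growth by half. TGI denotes the concentration required for complete inhibition of growth.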

How the values were obtained:
Test in all cases: NCI tumour cell line growth inhibition, 48 h
[1] = tested on: SNB-75 CNS
[2] = tested on: SK-MEL-2 melanoma
[3] = tested on: HT29 colon
[4] = tested on: 786-0 renal
[5] = tested on: CCRF-CEM leukemia
[6] = tested on: LOX IMVI melanoma
[7] = tested on: SW-620 colon
[8] = tested on: SF-295 CNS
[9] = tested on: CAKI-1 renal
[10] = tested on: SR leukemia

Row | SMILES | GI50 [1] | TGI [1] | GI50 [2] | TGI [2] | GI50 [3] | TGI [3] | GI50 [4] | TGI [4] | GI50 [5] | TGI [5] | GI50 [6] | TGI [6] | GI50 [7] | TGI [7] | GI50 [8] | TGI [8] | GI50 [9] | TGI [9] | GI50 [10] | TGI [10]
1 | CCOC(=O)c1c(CN2CCN(C)CC2)nc2ccc(Cl)cc2c1-c1ccccc1 | 2.15 µM | 8.95 µM | 12.9 µM | 26.2 µM | 2.28 µM | 6.16 µM | 7.05 µM | 18.8 µM | 7.17 µM | 28.9 µM | 4.52 µM | 16.1 µM | 9.35 µM | 21.6 µM | 3.27 µM | 9.95 µM | 2.95 µM | 13.6 µM | 1.93 µM | 4.78 µM
2 | CCOC(=O)/C(=C\c1ccc2ccccc2c1)P(=O)(OCC)OCC | 2.57 µM | 14.8 µM | 2.16 µM | 5.22 µM | 2.8 µM | 8.18 µM | 2.26 µM | 5.61 µM | 1.89 µM | 6.51 µM | 1.58 µM | 3.08 µM | 2.81 µM | 10.4 µM | 4.76 µM | 16.2 µM | 3.06 µM | 12 µM | 1.69 µM | 8.19 µM
3 | COc1cc2c3cc1Oc1c(OC)c(OC)cc4c1C(Cc1ccc(O)c(c1)Oc1ccc(cc1)CC3N(C)CC2)N(C)CC4 (configuration not stated) | 11.3 µM | 52.7 µM and 24 µM | 20.2 µM | > 100 µM and 36.6 µM | 1.78 µM | > 100 µM and 32.8 µM | – | > 100 µM and 33.3 µM | – | 81.8 µM and 57.6 µM | 3.68 µM | > 100 µM and 15.9 µM | – | > 100 µM and 33.4 µM | 13.3 µM | 59.1 µM and 29.8 µM | 14 µM | 48.5 µM and 40.6 µM | 3.32 µM | 21 µM
4 | N#[N+]c1ccc(Nc2ccccc2)cc1 | > 50 µg/mL | > 50 µg/mL | > 50 µg/mL | > 50 µg/mL | > 50 µg/mL | > 50 µg/mL | > 50 µg/mL | > 50 µg/mL | > 50 µg/mL | > 50 µg/mL | > 50 µg/mL | > 50 µg/mL | > 50 µg/mL | > 50 µg/mL | > 50 µg/mL | > 50 µg/mL | 1.11 µg/mL | 19.3 µg/mL | > 50 µg/mL | > 50 µg/mL
5 | COc1ccccc1NC(=O)C1=C(C)NC(C)=C(C(=O)Nc2ccccc2OC)C1c1ccco1 | – | 29.7 µM | – | 31.4 µM | – | 14.7 µM | – | > 77 µM | – | 59.8 µM | – | > 100 µM | – | > 100 µM | – | > 44.2 µM | – | > 24.1 µM | – | 15.3 µM
6 | Nc1ncc2ncn(C3CCC(CO)O3)c2n1 (configuration not stated) | – | > 100 µM | – | > 100 µM | – | > 100 µM | – | > 100 µM | – | > 100 µM | – | > 100 µM | – | > 100 µM | – | > 100 µM | – | > 100 µM | – | > 100 µM
7 | Nn1c(-c2ccc(Cl)cc2)nc2c(-c3ccc(Cl)cc3)nc3ccc(Cl)cc3c2c1=O | 4.79 µM | 19.5 µM | 25.2 µM | > 100 µM | > 100 µM | > 100 µM | 16.4 µM | 54.3 µM | – | 1.11 µM | 5.77 µM | 32.9 µM | 6.06 µM | > 100 µM | 13.3 µM | 34.4 µM | 3.97 µM | 22 µM | 4.08 µM | 20.2 µM
8 | CC1OC(OC2C(O)C(O)C(O)C(O)C2O)C(N)CC1N=C(N)C(=O)O (configuration not stated) | – | > 100 µM | – | > 100 µM | – | > 100 µM | – | > 100 µM | – | > 100 µM | – | > 100 µM | – | > 100 µM | – | > 100 µM | – | > 100 µM | – | > 100 µM
9 | C=CC(=O)Nc1cc2c(Nc3ccc(F)c(Cl)c3)ncnc2cc1C#CC(C)(C)N1CCN(C)CC1 | 1.16 µM | 3.86 µM | 2.98 µM | 5.54 µM | 1.56 µM | 4.09 µM | 1.31 µM | 2.82 µM | 1.24 µM | 5.08 µM | 1.27 µM | 2.65 µM | 2 µM | 4.61 µM | 2.94 µM | 6.62 µM | 0.973 µM | 4.05 µM | 0.746 µM | 5.61 µM
10 | NCCCN=c1ccc2c3c1c(O)c1c(O)ccc(=O)c1c3[nH]n2CCNCCO | 0.423 µM | 5.14 µM and 4.69 µM | 3.28 µM and 1.08 µM | 8.18 µM and 4.08 µM | 3.08 µM | 11.9 µM and 21.7 µM | 0.723 µM | 11.4 µM and 5.28 µM | 0.583 µM and 0.478 µM | 8.77 µM and 28.3 µM | 1.53 µM | 5.8 µM | – | 9.98 µM and 40.5 µM | 1.06 µM | 7.44 µM and 39.9 µM | 1.1 µM and 0.528 µM | 11.2 µM and 3.84 µM | 0.291 µM | –
11 | CCOC(=O)[C@@H]1CSC(CC)=C(C(=O)O)N1 | > 100 µM | > 100 µM | > 100 µM | > 100 µM | > 100 µM | > 100 µM | > 100 µM | > 100 µM | > 100 µM | > 100 µM | > 100 µM | > 100 µM | > 100 µM | > 100 µM | > 100 µM | > 100 µM | > 100 µM | > 100 µM | > 100 µM | > 100 µM
12 | O=C1C(=O)C2(CC1S(=O)(=O)c1ccccc1)c1ccccc1-c1ccccc12 (configuration not stated) | – | > 100 µM | – | 33.8 µM | – | 59.7 µM | – | 82.5 µM | – | 58.2 µM | – | 34.5 µM | – | 85.1 µM | – | 37.7 µM | – | 61.6 µM | – | 50 µM
13 | COc1cc2c3c(n(CCCNCCCNCCCN)c(=O)c2cc1OC)-c1cc2c(cc1C3=O)OCO2 | 12.8 µM | > 100 µM | > 100 µM | > 100 µM | 48.6 µM | > 100 µM | 69.5 µM | > 100 µM | 35.1 µM | > 100 µM | 32.4 µM | > 100 µM | 82.5 µM | > 100 µM | 40.6 µM | > 100 µM | 26.3 µM | > 100 µM | 13.6 µM | 89 µM
14 | Cc1cc(NN=C(c2ccc(O)cc2)c2ccc(O)cc2)c([N+](=O)[O-])cc1[N+](=O)[O-] | 6.84 µM | 60.5 µM | – | – | 5.98 µM | > 100 µM | 5.39 µM | 22.1 µM | 3.33 µM | 34 µM | 3.8 µM | 21.2 µM | 8.83 µM | 45.6 µM | 4.91 µM | 22.2 µM | 18.7 µM | 51.1 µM | 5.55 µM | 50.2 µM
